Source: BigSolDB 2.1

CN(C/C=C/C#CC(C)(C)C)Cc1cccc2ccccc12.Cl
solubility (mole fraction) (in ethanol, 278.15 K): 0.0187
solubility (mole fraction) (in ethanol, 280.65 K): 0.0197
solubility (mole fraction) (in ethanol, 283.15 K): 0.0207
solubility (mole fraction) (in ethanol, 285.65 K): 0.0217
solubility (mole fraction) (in ethanol, 288.15 K): 0.0229
solubility (mole fraction) (in ethanol, 290.65 K): 0.0241
solubility (mole fraction) (in ethanol, 293.15 K): 0.0254
solubility (mole fraction) (in ethanol, 295.65 K): 0.0266
solubility (mole fraction) (in ethanol, 298.15 K): 0.0279
solubility (mole fraction) (in ethanol, 300.65 K): 0.0293
solubility (mole fraction) (in ethanol, 303.15 K): 0.0309
solubility (mole fraction) (in ethanol, 305.65 K): 0.0326
solubility (mole fraction) (in ethanol, 308.15 K): 0.0342
solubility (mole fraction) (in ethanol, 310.65 K): 0.036
solubility (mole fraction) (in ethanol, 313.15 K): 0.0379
solubility (mole fraction) (in ethyl acetate, 278.15 K): 0.0022
solubility (mole fraction) (in ethyl acetate, 280.65 K): 0.00255
solubility (mole fraction) (in ethyl acetate, 283.15 K): 0.00304
solubility (mole fraction) (in ethyl acetate, 285.65 K): 0.0036
solubility (mole fraction) (in ethyl acetate, 288.15 K): 0.00417
solubility (mole fraction) (in ethyl acetate, 290.65 K): 0.00482
solubility (mole fraction) (in ethyl acetate, 293.15 K): 0.00557
solubility (mole fraction) (in ethyl acetate, 295.65 K): 0.00626
solubility (mole fraction) (in ethyl acetate, 298.15 K): 0.00715
solubility (mole fraction) (in ethyl acetate, 300.65 K): 0.00821
solubility (mole fraction) (in ethyl acetate, 303.15 K): 0.00919
solubility (mole fraction) (in ethyl acetate, 305.65 K): 0.0105
solubility (mole fraction) (in ethyl acetate, 308.15 K): 0.0119
solubility (mole fraction) (in ethyl acetate, 310.65 K): 0.0133
solubility (mole fraction) (in ethyl acetate, 313.15 K): 0.015
solubility (mole fraction) (in methanol, 278.15 K): 0.0398
solubility (mole fraction) (in methanol, 280.65 K): 0.0411
solubility (mole fraction) (in methanol, 283.15 K): 0.0424
solubility (mole fraction) (in methanol, 285.65 K): 0.0439
solubility (mole fraction) (in methanol, 288.15 K): 0.0453
solubility (mole fraction) (in methanol, 290.65 K): 0.047
solubility (mole fraction) (in methanol, 293.15 K): 0.0486
solubility (mole fraction) (in methanol, 295.65 K): 0.0502
solubility (mole fraction) (in methanol, 298.15 K): 0.0518
solubility (mole fraction) (in methanol, 300.65 K): 0.0536
solubility (mole fraction) (in methanol, 303.15 K): 0.0554
solubility (mole fraction) (in methanol, 305.65 K): 0.0572
solubility (mole fraction) (in methanol, 308.15 K): 0.059
solubility (mole fraction) (in methanol, 310.65 K): 0.061
solubility (mole fraction) (in methanol, 313.15 K): 0.063
solubility (mole fraction) (in n-propanol, 278.15 K): 0.0187
solubility (mole fraction) (in n-propanol, 280.65 K): 0.0193
solubility (mole fraction) (in n-propanol, 283.15 K): 0.02
solubility (mole fraction) (in n-propanol, 285.65 K): 0.0206
solubility (mole fraction) (in n-propanol, 288.15 K): 0.0214
solubility (mole fraction) (in n-propanol, 290.65 K): 0.0221
solubility (mole fraction) (in n-propanol, 293.15 K): 0.0228
solubility (mole fraction) (in n-propanol, 295.65 K): 0.0237
solubility (mole fraction) (in n-propanol, 298.15 K): 0.0245
solubility (mole fraction) (in n-propanol, 300.65 K): 0.0254
solubility (mole fraction) (in n-propanol, 303.15 K): 0.0262
solubility (mole fraction) (in n-propanol, 305.65 K): 0.0271
solubility (mole fraction) (in n-propanol, 308.15 K): 0.028
solubility (mole fraction) (in n-propanol, 310.65 K): 0.0291
solubility (mole fraction) (in n-propanol, 313.15 K): 0.0301
